The values below come from US9725430B2, “Use of small molecule inhibitors targeting EYA tyrosine phosphatase” (Children's Hospital Medical Center, priority 2013, dated 2017).

Each structure is given as a SMILES string.

What is called IC50 is the concentration that gives 50% inhibition.

Data set [1] deals with HUVECs. Put plainly: HUVEC transwell migration. Type of data set: cell-based, human. The following applies: 5 μM. An excerpt: (§1) In order to determine whether EYA3 knock down would affect cell migration, a modified Boyden chamber assay was used to measure HUVEC migration. Briefly, human umbilical vein endothelial cells (HUVECs) were purchased from Lonza (Walkersville, Md.) and maintained in the endothelial cell growth medium (PromoCell, Hleidelberg, Germany), under a 5% CO2 atmosphere. MCF10A cells from ATCC were stably transfected with either pcDNA 3.2N5-DEST (vector control), V5-EYA2 or V5-EYA2(D250N). Transwell migration experiments were performed as previously described (Pandey, R. N. et al. Oncogene 29, 3715-3722, (2010)).

Data set [2] deals with HUVECs. Description: HUVEC proliferation (MTT). Type of data set: cell-based, human. The conditions noted are these: 5 μM, 24 hours.
The next data set concerns mouse aortic rings. Description: Aortic ring sprouting assay. Type of data set: cell-based. As to the method: Additionally, the effect of compounds 1d, 1f, 1h, 1i, 1g, 2 and 2a on cell proliferation, migration, tube formation, micro-vessel branching, and perivascular recruitment using an aortic ring sprouting assay. When slices of mouse aorta are cultured in collagen gels there is typically a lag phase for the first 4 days followed by linear sprouting of endothelial cells. By day 6, branching is observed. All the test compounds were initially assayed at 7.5 μM and the number of branch-points counted. When there was a severe effect (no visible sprouting), or when there was no apparent effect, other doses were tested to establish a dose-dependence. All of the compounds assayed were able to attenuate aortic ring sprouting. There was a strong reduction in initial sprouting and some attenuation of branching. With the exception of 2a, in all cases where there was sprouting, the length of sprouts was shorter than in the controls.
Endothelial cell migration can also be studied […] using the aortic ring assay in which sprouting angiogenesis is monitored by the formation of vascular sprouts outside the wall of mouse aortic rings incubated in collagen matrix and stimulated by VEGF (Gerhardt, H., et al. EXS, 3-15 (2005), hereby incorporated by reference in its entirety). Briefly, mice were obtained from the Cincinnati Children's veterinary service and handled according to the institutional animal care and use protocol. […] Mice were 4 to 6 weeks old female C57BL16, and aortic ring explants were cultured at 37° C. in a humidified incubator under a 5% CO2 atmosphere.
Each inhibitor was serially diluted (between 0.25 mM and 7.5 mM) to stocks of 1000× the working concentrations in sterile 100% DMSO in order to achieve an equal final concentration of DMSO (0.1% v/v) in all culture conditions. For the experiments, the compounds were diluted in EBM containing 2.5% FBS, penicillin/streptomycin and 20 ng/ml VEGF165 (R&D Systems, Minneapolis, Minn.). Each compound was applied from the first day of culture over a 10-day period with medium change every two days. In all experiments, the vehicle (DMSO, 0.1%) was used as control. The sprouting density was derived from counting the number of branches per ring, and the extent of angiogenic sprouting was estimated by measuring the total surface area covered by the vessels as illustrated in FIG. 7.

The subject of a further data set is retinal vasculature. Description: Mouse model of oxygen-induced retinopathy. It is filed as in vivo, mice. The following applies: 100 or 50 pmoles injected at P12, analyzed at P16. An excerpt: The mouse model of oxygen-induced retinopathy mimics the retinopathy characteristic of proliferative retiopathy conditions such as retinopathy of prematurity and diabetic retinopathy. […] The resulting retinal hypoxia after day 12, when pups were brought back to 20% O2, induced excessive hypoxia-driven angiogenesis. A characteristic large avascular area at the center of the retina and excessive regrowth of superficial vessels (pre-retinal neovascular tufts) in the mid-peripheral region was observed. […] In contrast, inhibition of either Vegf or Vegfr2 in OIR experiments suppresses both neovascular tuft formation and revascularization.

The subject of data set [3] is developing zebrafish vasculature. Put plainly: Zebrafish model of angiogenesis. It is filed as in vivo. The conditions noted are these: exposure from 5.25 hpf, analysis at 24 hpf; compound 1 at 0.25 μM. As to the method:
Embryos (FLK1-GFP trangenic) were maintained in fish water until the 50% epiboly stage (5.25 hpf) and were transferred into wells of 24-well plate containing the inhibitors in fish water. The analysis for vascular defects was performed after the 24 hpf stage, and embryos were imaged using a fluorescence microscope.
Transgenic fish expressing EGFP in endothelial cells (Tg(flk1:EGFP)) were used to facilitate visualization of the developing vasculature. In control experiments embryos were treated with 0.1% DMSO (vehicle). At the time of analyses (24 hpf) developing vessels normally migrated from the lateral plate mesoderm to the midline and formed the vascular cord, subsequently forming the dorsal aorta and the posterior cardinal vein and followed by the formation of intersegmental vessels at designated branch points (FIG. 6b).

Data set [4] has as its system HUVECs. Put plainly: HUVEC tubulogenesis on Matrigel. It is filed as cell-based, human. The conditions noted are these: for tube formation on Matrigel: HUVEC. An excerpt:
Primary endothelial cells (ECs) on basement membrane rapidly attach, align themselves and form capillary-like tubules with lumens and tight cell-cell contacts. […] To better understand the stage in matrigel tube-formation affected by compound 1g cells plated on growth-factor reduced matrigel and treated with either vehicle or compound 1g were followed. Differences become apparent within the first two hours and were clearly visible at the 6-hour time-point. The ECs are much less organized in the presence of compound 1g. […] The effect of compound 1g on tube formation was attenuated in the presence of high concentrations of fetal bovine serum (FBS), likely reflecting non-specific protein binding.
The EYA inhibitors were also tested in tubulogenesis assays. The tubulogenesis assays were performed in 15-well micro-slide (ibidi LLC, Verona Wis.), using growth factor-reduced matrigel (BD Bioscience, Billerica, Mass.). The matrix was prepared by loading 10 μl of matrigel in each micro-slide well and allowing it to solidify for 30 minutes at 37° C. HUVECs were trypsinized and resuspended at 100.000 cell/ml in EBM+2.5% FBS. 50 μl (5,000 cell) were loaded on top of the solidified matrigel and the preparation was incubated for 20 hours at 37° C. in a humidified incubator in a 5% CO2 atmosphere. Bright field images were taken using an inverted microscope at 2.5× magnification, which allowed imaging of the whole well in two pictures that were later merged in Photoshop. Tubular structures were traced and counted using NeuroJ (NIH, USA). In experiments with inhibitor, the inhibitor was added to the cell suspension before loading. Each sample was loaded in triplicate, and each treatment was repeated for reproducibility.

A further data set deals with MCF10A(EYA2) cells. Put plainly: Transwell migration of MCF10A-EYA2 cells. It is filed as cell-based. The conditions noted are these: 7.5 μM.
Excerpt: The tyrosine phosphatase activity of Eya3 and Eya2 promotes single cell motility in breast cancer cells (Pandey, R. N. et al. Oncogene (2010) 29:3715-3722, incorporated by reference in its entirety). EYA2 is over-expressed in breast cancers and is associated with increased metastasis and a poorer outcome (Farabaugh, et al. Oncogene (2011) 259). […] Overexpression of EYA2, but not the tyrosine-phosphatase dead mutant, promoted cell motility (FIG. 2a). […] This effect was dose-dependent (FIG. 2d) and compound (1a) was able to reduce cell motility by over 50% at the lowest concentration (1 μM) tested.
as §1

The next data set concerns the target PTP1B (Homo sapiens (Human), UniProt P18031). Put plainly: PTP1B-catalyzed pNPP hydrolysis. The following applies: pNPP substrate. Type of data set: biochemical. As to the method: The catalytic domain of human Eya2 (“hEYA2(ED)”) was similarly sub-cloned as a polyhistidine fusion construct in the vector pDEST-527. Fusion protein was purified by NiNTA chromatography and followed by size-exclusion chromatography over a Superdex-75 column. The relative purity of protein samples was determined using SDS-PAGE. PTP1B was purified as described previously (Rayapureddi, J. P. et al. Nature 426, 295-298 (2003), incorporated by reference in its entirety).
An inhibitory assay was conducted using the previously described p-nitrophenylphosphate assay (Rayapureddi, J. P. et al. Nature 426, 295-298 (2003)). Briefly, ED was incubated in a reaction mixture containing 20 mM MES pH 6, 2 mM MgCl2, 125 μM inhibitor, 3.4 mM para-nitrophenol phosphate (pNPP) and 0.01 μg/μL enzyme.
PTP1B is a classical Cys-based tyrosine phosphatase.

For another data set, the target named is EYA3 (Homo sapiens (Human), UniProt Q99504). Description: pNPP assay, full-length human recombinant EYA3. It is filed as biochemical. The conditions noted are these: pNPP substrate, full-length EYA3. An excerpt:
The catalytic domain of mouse Eya3 (“ED”, comprising residues 223-510 of Eya3) was purified as described by Rayapureddi, J. P. et al. (FEBS Lett 580, 3853-3859 (2006), incorporated by reference in its entirety). For full-length Eya3 (“hEYA3”), human Eya3 isoform 2 (representing the major species identified in human cell lines by mass spectrometry, expressed as residues 127-573 of NM_001990, isoform 1) was sub-cloned into pDEST565 to express a poly-histidine-Glutathione-S-transferase (His-GST) tagged fusion protein with a TVMV protease site. The protein was purified by glutathione-S-transferase affinity chromatography followed by TVMV cleavage, Ni-NTA chromatography, and finally size exclusion chromatography. […]
The compounds were then tested using full-length human recombinant, purified EYA3 and pNPP as a substrate. Compounds were dissolved in DMSO and diluted as needed. […] Reactions were incubated at 30° C. for 30 minutes and quenched with 100 mM EDTA pH 10. IC50 values were then calculated directly from regression curves using PRISM software. All reported values are the mean of two independent experiments.

A further data set deals with HUVEC cells. Put plainly: Scratch wound healing assay, HUVEC. Type of data set: cell-based, human. The conditions noted are these: counted 22 hours later. As to the method:
Cells were plated and grown to confluency. Scratch wounds were made using a sterile pipette tip, the medium changed to remove any cellular debris, and fresh medium with either vehicle or test compound was introduced. The number of cells that migrated into the cleared space was counted 22 hours later.

Data set [5] has as its system HUVECs. Put plainly: HUVEC cell viability assay (WST-8). It is filed as cell-based, human. The conditions noted are these: 3 days of exposure. On the procedure:
Additionally, a cell viability assay was conducted over 3 days of exposure to test compounds 1, 1a and 1g in order to assess both the possibility of immediate cellular toxicity as well as any effect on cell proliferation. HUVECs were seeded and equilibrated for 24 hours before addition of the test compounds. Cellular metabolic activity was measured at defined time-points using the tetrazolium dye WST-8 to quantify NAD(P)H-dependent cellular oxidoreductase enzyme activity.
In general terms: Tetrazolium dyes change colour on reduction, which living cells bring about.

Chain of EYA3 (Q99504 127-573): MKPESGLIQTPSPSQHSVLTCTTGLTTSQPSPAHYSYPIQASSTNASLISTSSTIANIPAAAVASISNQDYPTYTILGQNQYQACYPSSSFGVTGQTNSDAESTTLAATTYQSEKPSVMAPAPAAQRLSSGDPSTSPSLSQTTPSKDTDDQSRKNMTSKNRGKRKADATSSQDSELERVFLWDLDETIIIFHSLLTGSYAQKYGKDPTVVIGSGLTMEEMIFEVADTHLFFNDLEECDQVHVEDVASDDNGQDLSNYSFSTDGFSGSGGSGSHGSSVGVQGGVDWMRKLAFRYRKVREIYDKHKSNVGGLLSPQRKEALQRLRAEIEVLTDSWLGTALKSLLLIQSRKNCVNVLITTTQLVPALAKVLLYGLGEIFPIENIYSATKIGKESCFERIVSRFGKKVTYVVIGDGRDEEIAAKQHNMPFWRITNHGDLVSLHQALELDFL
Chain of PTP1B (P18031 whole entry, species assumed, the tested form may be a part): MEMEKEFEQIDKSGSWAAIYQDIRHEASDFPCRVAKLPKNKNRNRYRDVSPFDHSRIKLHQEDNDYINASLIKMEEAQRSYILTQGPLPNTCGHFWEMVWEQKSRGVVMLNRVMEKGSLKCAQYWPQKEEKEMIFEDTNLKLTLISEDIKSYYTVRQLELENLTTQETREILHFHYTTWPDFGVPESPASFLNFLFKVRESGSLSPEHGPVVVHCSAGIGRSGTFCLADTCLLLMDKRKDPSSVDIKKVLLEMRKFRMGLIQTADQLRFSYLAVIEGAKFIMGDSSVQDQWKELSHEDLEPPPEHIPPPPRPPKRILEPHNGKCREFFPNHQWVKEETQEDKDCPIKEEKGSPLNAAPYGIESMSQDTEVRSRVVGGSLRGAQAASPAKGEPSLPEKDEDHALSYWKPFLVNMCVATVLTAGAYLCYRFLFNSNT

For the compound `CCCCc1oc2ccccc2c1C(=O)c1ccc(O)cc1` [Compound 1b], in the data set on HUVECs [1], the HUVEC cell motility result was “attenuated HUVEC cell motility”. Besides, in the data set with HUVECs [2], the HUVEC cell proliferation result was “no effect on cell proliferation”. Also, the “sprout length and microvascular density of aortic rings” value with mouse aortic rings (5 μM, 10 days) was “shorter sprouts and significantly lower microvascular density”. For the same compound, in the data set with retinal vasculature, the “formation of neovascular tufts” value was “Significant reduction in the formation of neovascular tufts”. Also, the “intersegmental vessels in zebrafish embryos” value in data set [3] is given as “reduced the number of intersegmental vessels, but were less potent”. The tubulogenesis inhibition entry in the data set with HUVECs [4] (7.5 μM) was “effective at the highest concentrations tested”. In addition, the cell migration result in the data set on MCF10A(EYA2) cells is “significantly inhibited cell migration”. Further, the IC50 against PTP1B stood at 71.4 µM.

On to `CCc1oc2ccccc2c1C(=O)c1cc(I)c(O)c(I)c1` [Compound 1c], for which, at EYA3, the IC50 is 3.4 µM.

In the case of `Cc1oc2ccccc2c1C(=O)c1cc(I)c(O)c(I)c1` [Compound 1d], the IC50 on EYA3 stood at 8.3 µM. Further, the “tube formation on Matrigel” value in the data set on HUVECs [4] is on record as “did not show significant attenuation of tube formation”.

On to `CC(O)Cc1oc2ccccc2c1C(=O)c1cc(I)c(O)c(I)c1` (centres unmarked) [Compound 1e], for which, at EYA3, the IC50 turned out to be 13.8 µM.

Turning to `Cc1oc2ccccc2c1C(=O)c1ccc(O)c(I)c1` [Compound 1f], the IC50 at EYA3 came out at 17.5 µM. Also, the “tube formation on Matrigel” value with HUVECs [4] is listed as “did not show significant attenuation of tube formation”.

Regarding `CCc1oc2cc(O)ccc2c1C(=O)c1cc(Br)c(O)c(Br)c1` [Compound 1g], the “reduction of cell migration” value in the data set with HUVEC cells is about 80%. The aortic ring sprouting entry in the data set with mouse aortic rings (initially assayed at 7.5 μM) was “most potent inhibitor”. In addition, the “reduction in cell proliferation” value in the data set with HUVECs [5] is recorded as “over 50%”. Further, the IC50 at EYA3 came out at 27.2 µM. Besides, the “tube formation on Matrigel” value in the data set on HUVECs [4] is “much stronger inhibitory effect than compound 1a”.

On to `CCc1oc2ccc(O)cc2c1C(=O)c1cc(Br)c(O)c(Br)c1` [Compound 1h], for which, at EYA3, the IC50 is 40.8 µM. Further, the “tube formation on Matrigel” value with HUVECs [4] was “did not show significant attenuation of tube formation”.

Regarding `CC(O)c1oc2ccccc2c1C(=O)c1cc(Br)c(O)c(Br)c1` (centres unmarked) [Compound 1i], the IC50 on EYA3 worked out at 41.9 µM.

For the compound `CCc1oc2ccc(O)cc2c1C(=O)c1ccc(O)cc1` [Compound 1j], on EYA3, the IC50 came out at 73.1 µM.

Turning to `Cc1oc2ccccc2c1C(=O)c1ccc(O)cc1` [Compound 1k], the IC50 at EYA3 came out at 81.1 µM.

For `CCCCc1oc2ccccc2c1C(=O)c1cc(I)c(O)c(I)c1` [Compound 2], the “tube formation on Matrigel” value in the data set with HUVECs [4] was “did not show significant attenuation of tube formation”.

As to `CC(O)CCc1oc2ccccc2c1C(=O)c1cc(I)c(O)c(I)c1` (centres unmarked) [Compound 2a], in the data set with HUVECs [4], the “tube formation on Matrigel” value is given as “did not show significant attenuation of tube formation”.
